Test results taken from ChEMBL document CHEMBL4602605, “Fluoroquinolones structural and medicinal developments (2013-2018): Where are we now?” (Bioorg Med Chem, 2019).
In brackets after ≈: the same amount, converted by molar mass.

Columns and labels:
Format in all cases: functional
[1] = tested on: Streptococcus pneumoniae; assay: Antibacterial activity against Streptococcus pneumoniae ATCC 49619 incubated for 24 hrs; settings: ATCC 49619, 24 h
[2] = tested on: Staphylococcus aureus; assay: Antimicrobial activity against Staphylococcus aureus ATCC 29213 incubated for 24 hrs; settings: ATCC 29213, 24 h
[3] = tested on: Pseudomonas aeruginosa; assay: Antimicrobial activity against Pseudomonas aeruginosa ATCC 27853 incubated for 24 hrs; settings: ATCC 27853, 24 h
[4] = tested on: Escherichia coli; assay: Antimicrobial activity against Escherichia coli ATCC 25922 incubated for 24 hrs; settings: ATCC 25922, 24 h
[5] = tested on: Escherichia coli; assay: Antibacterial activity against Escherichia coli incubated for 18 hrs by CLSI-based broth microdilution method
[6] = tested on: Pseudomonas aeruginosa; assay: Antimicrobial activity against Pseudomonas aeruginosa ATCC 19429 incubated for 18 hrs by CLSI-based microbroth dilution method; settings: ATCC 19429, 18 h
[7] = tested on: Staphylococcus aureus; assay: Antimicrobial activity against Staphylococcus aureus ATCC 25923 incubated for 18 hrs by CLSI-based microbroth dilution method; settings: ATCC 25923, 18 h

Structure (SMILES)	MIC [1] [µg/mL]	MIC [2] [µg/mL]	MIC [3] [µg/mL]	MIC [4] [µg/mL]	MIC [5] [µg/mL]	MIC [6] [µg/mL]	MIC [7] [µg/mL]
CCn1cc(C(=O)O)c(=O)c2cc(F)c(N3CCN(C/C(=N/Nc4ccccc4)c4ccc(C)cc4)CC3)cc21	100 (≈ 185 µM)	50 (≈ 92.3 µM)	> 100	25 (≈ 46.2 µM)			
CCCCN(CCCC)c1cc2c(cc1F)c(=O)c(C(=O)O)cn2CC					> 128	> 128	8 (≈ 22.1 µM)
CCn1cc(C(=O)O)c(=O)c2cc(F)c(N3CCN(C/C(=N/O)c4ccc(C)cc4)CC3)cc21	100 (≈ 214 µM)	50 (≈ 107 µM)	100 (≈ 214 µM)	50 (≈ 107 µM)			
COc1ccc(/C(CN2CCN(c3cc4c(cc3F)c(=O)c(C(=O)O)cn4C3CC3)CC2)=N/NC(N)=O)cc1	12.5 (≈ 23.3 µM)	6.25 (≈ 11.6 µM)	50 (≈ 93.2 µM)	12.5 (≈ 23.3 µM)			
CCn1cc(C(=O)O)c(=O)c2cc(F)c(N3CCN(C/C(=N\Nc4ccccc4)c4ccc([N+](=O)[O-])cc4)CC3)cc21	100 (≈ 175 µM)	50 (≈ 87.3 µM)	> 100	50 (≈ 87.3 µM)			
Cl.O=C(O)c1cn(CCO)c2cc(N3CCNCC3)c(F)cc2c1=O					4	64	64
CCn1cc(C(=O)O)c(=O)c2cc(F)c(N3CCN(C/C(=N/O)c4ccc([N+](=O)[O-])cc4)CC3)cc21	50 (≈ 101 µM)	6.25 (≈ 12.6 µM)	100 (≈ 201 µM)	12.5 (≈ 25.1 µM)			
CCCCN(CCCC)c1cc2c(cc1F)c(=O)c(C(=O)O)cn2C1CC1					> 128	> 128	8 (≈ 21.4 µM)
Cc1ccc(/C(CN2CCN(c3cc4c(cc3F)c(=O)c(C(=O)O)cn4C3CC3)CC2)=N\NC(N)=O)cc1	25 (≈ 48 µM)	6.25 (≈ 12 µM)	50 (≈ 96 µM)	12.5 (≈ 24 µM)			
CCn1cc(C(=O)O)c(=O)c2cc(F)c(N3CCN(C/C(=N/OC)c4ccc([N+](=O)[O-])cc4)CC3)cc21	100 (≈ 195 µM)	25 (≈ 48.9 µM)	100 (≈ 195 µM)	25 (≈ 48.9 µM)			
Cl.NCCNc1cc2c(cc1F)c(=O)c(C(=O)O)cn2C1CC1					1	4	16
O=C(O)c1cn(C2CC2)c2cc(N3CCCCC3)c(F)cc2c1=O						32 (≈ 96.9 µM)	0.25 (≈ 0.757 µM)
CCCCn1cc(C(=O)O)c(=O)c2cc(F)c(N3CCNCC3)cc21.Cl					2	16	16
CCn1cc(C(=O)O)c(=O)c2cc(F)c(N3CCN(C/C(=N/Nc4ccccc4)c4ccc(OC)cc4)CC3)cc21	100 (≈ 179 µM)	25 (≈ 44.8 µM)	100 (≈ 179 µM)	25 (≈ 44.8 µM)			
CCn1cc(C(=O)O)c(=O)c2cc(F)c(N3CCN(C/C(=N\O)c4ccccc4)CC3)cc21	100 (≈ 221 µM)	50 (≈ 111 µM)	100 (≈ 221 µM)	50 (≈ 111 µM)			
CCn1cc(C(=O)O)c(=O)c2cc(F)c(N3CCN(C/C(=N/N)c4ccc(C)cc4)CC3)cc21	25 (≈ 53.7 µM)	12.5 (≈ 26.9 µM)	100 (≈ 215 µM)	25 (≈ 53.7 µM)			
Cl.O=C(O)c1cn(Cc2ccccc2)c2cc(N3CCNCC3)c(F)cc2c1=O					1	2	2
COc1ccc(/C(CN2CCN(c3cc4c(cc3F)c(=O)c(C(=O)O)cn4C3CC3)CC2)=N\N)cc1	12.5 (≈ 25.3 µM)	6.25 (≈ 12.7 µM)	100 (≈ 203 µM)	12.5 (≈ 25.3 µM)			
CCn1cc(C(=O)O)c(=O)c2cc(F)c(N3CCNCC3)cc21.Cl						1	2
CN1CCN(c2cc3c(cc2F)c(=O)c(C(=O)O)cn3C2CC2)CC1					0.0078 (≈ 0.0226 µM)	1 (≈ 2.9 µM)	0.25 (≈ 0.724 µM)
CCn1cc(C(=O)O)c(=O)c2cc(F)c(N3CCN(C/C(=N/OC)c4ccc(C)cc4)CC3)cc21	100 (≈ 208 µM)	25 (≈ 52 µM)	> 100	25 (≈ 52 µM)			
CCn1cc(C(=O)O)c(=O)c2cc(F)c(N3CCN(C/C(=N/NC(N)=O)c4ccc([N+](=O)[O-])cc4)CC3)cc21	12.5 (≈ 23.2 µM)	6.25 (≈ 11.6 µM)	50 (≈ 92.7 µM)	6.25 (≈ 11.6 µM)			
CCn1cc(C(=O)O)c(=O)c2cc(F)c(N3CCN(C/C(=N/OC)c4ccc(OC)cc4)CC3)cc21	100 (≈ 201 µM)	50 (≈ 101 µM)	100 (≈ 201 µM)	50 (≈ 101 µM)			
O=C(O)c1cn(C2CC2)c2cc(N3CCCC3)c(F)cc2c1=O						> 128	0.0625 (≈ 0.198 µM)
O=C(O)c1cn(C2CC2)c2cc(N3CCOCC3)c(F)cc2c1=O						8 (≈ 24.1 µM)	125 (≈ 376 µM)
